Measured values published in publication PMC7843452, “Novel Hybrids of Podophyllotoxin and Coumarin Inhibit the Growth and Migration of Human Oral Squamous Carcinoma Cells” (Frontiers in Chemistry, 2021).
Where two headings read alike, the source gives them in different places.

Assays:
[1] = system: human non-small-cell lung carcinoma A549 cells; design: method as in Yang et al., 2019; settings: ref Yang et al., 2019; read-out: IC50 against A549 cells; cited from earlier work
[2] = system: human oral squamous carcinoma HSC-2 cells; experiment: CCK-8 antiproliferative assay, HSC-2; type: cell-based; settings: for IC50: read-out: IC50 (μM) HSC-2
Method: (§1) The in vitro antiproliferative activities of target compounds were investigated against human oral squamous carcinoma HSC-2, SCC-9, and A253 cells and human renal tubular epithelial HK-2 cells by Cell Counting Kit-8 (CCK-8) assay. The HSC-2, SCC-9, and A253 cell lines were purchased from Cobioer Biosciences (Nanjing, China), and HK-2 cell line was from KeyGen Biotech (Nanjing, China). The cells were placed into 96-well plates. After 24 h, cells were treated with 0.1% DMSO or different doses of test compounds for 72 h at 37°C in a CO2 incubator. Subsequently, 100 μl of CCK-8 test solution was added and incubated for 3 h at 37°C. The absorbance value of each well was measured at 450 nm.

[3] = system: human oral squamous carcinoma A253 cells; experiment: CCK-8 antiproliferative assay, A253; type: cell-based; settings: for IC50: read-out: IC50 (μM) A253
Method: as §1

[4] = system: human oral squamous carcinoma SCC-9 cells; experiment: CCK-8 antiproliferative assay, SCC-9; type: cell-based; settings: for IC50: read-out: IC50 (μM) SCC-9
Method: as §1

[5] = system: human renal tubular epithelial HK-2 cells; experiment: CCK-8 assay on normal cells, HK-2; type: cell-based; settings: read-out: IC50 (μM) HK-2
Method: as §1

human breast MCF-7 cells = system: human breast MCF-7 cells; design: method as in Sun et al., 2017; settings: in vitro; ref Sun et al., 2017; read-out: IC50 against MCF-7 cells; cited from earlier work
cleaved caspase3 = experiment: Western blot, cleaved caspase3; type: cell-based, human; settings: HSC-2, 0.1, 0.25 and 0.5 μM, 48 h, concentration-dependent
Method: (§2) After being cultured, HSC-2 cells were treated with 0.1% DMSO or different concentrations of compounds at 37°C for 48 h. Then, cells were collected, washed twice with PBS, and lysed with cold lysis buffer, followed by centrifugation. Then, the total proteins were collected, and protein concentration was quantified using Bradford assay. Equal amounts of proteins were electrophoresed by 10% sodium dodecyl sulfate–polyacrylamide gel electrophoresis (SDS-PAGE) and transferred onto nitrocellulose (NC) membrane. Membranes were blocked with 5% non-fat milk for 2 h, then washed, and incubated with primary antibodies overnight at 4°C. After being washed, the membranes were treated with secondary antibodies at room temperature for 2 h and then visualized using an ECL Western blotting kit.

LC3 = experiment: Western blot, LC3; type: cell-based, human; settings: HSC-2, 0.1, 0.25 and 0.5 μM, 48 h
Method: as §2

CDK2 = experiment: Western blot, CDK2; type: cell-based, human; settings: HSC-2, 0.1, 0.25 and 0.5 μM, 48 h
Method: as §2

cyclin A2 = experiment: Western blot, cyclin A2; type: cell-based, human; settings: HSC-2, 0.1, 0.25 and 0.5 μM, 48 h
Method: as §2

[6] = system: microtubule network in HSC-2 cells; experiment: Immunofluorescence assay of microtubule network; type: cell-based, human; settings: HSC-2, 0.1, 0.25 and 0.5 μM, 48 h, dose-dependent
Method: HSC-2 cells were seeded on 24-well plates, grown overnight at 37°C in a 5% CO2 incubator, and then incubated with 0.1% DMSO or different concentrations of compounds at 37°C for 48 h. Cells were washed with PBS, fixed with 4% paraformaldehyde, and then further permeabilized with 0.5% Triton X-100 for 10 min. Subsequently, cells were blocked for 20 min by 50–100 μl of goat serum albumin at room temperature and then treated with α-tubulin primary antibody at 4°C for 2 h. Then, cells were treated with the Alexa Fluor 488-labeled goat anti-rabbit fluorescence secondary antibody at 37°C for 1 h in the dark, and the cell nuclei were labeled by DAPI at room temperature for 5 min. Finally, cells were visualized under a confocal microscope.

MMP-2 = experiment: Western blot, MMP-2; type: cell-based, human; settings: HSC-2, 0.1, 0.25 and 0.5 μM, 48 h
Method: as §2

HSC-2 cells [7] = experiment: Wound healing migration assay; type: cell-based, human; settings: HSC-2, 0.1, 0.25 and 0.5 μM, 48 h, dose-dependent
Method: HSC-2 cells were seeded on six-well plates and grown to 80% at 37°C in a 5% CO2 incubator. Then, cells were scratched using the tip of the pipette, then washed with PBS to remove the non-adherent cells, and incubated with 0.1% DMSO or different concentrations of compounds at 37°C for 48 h. The images of cell migration were photographed with an inverted fluorescent microscope at 0 and 48 h.

cleaved PARP = experiment: Western blot, cleaved PARP; type: cell-based, human; settings: HSC-2, 0.1, 0.25 and 0.5 μM, 48 h, concentration-dependent
Method: as §2

E-cadherin = experiment: Western blot, E-cadherin; type: cell-based, human; settings: HSC-2, 0.1, 0.25 and 0.5 μM, 48 h
Method: as §2

Beclin1 = experiment: Western blot, Beclin1; type: cell-based, human; settings: HSC-2, 0.1, 0.25 and 0.5 μM, 48 h
Method: as §2

HSC-2 cells [8] = experiment: Cell cycle analysis by flow cytometry (PI); type: cell-based, human; settings: 48 h
Method: HSC-2 cells were incubated in six-well plates and then treated with 0.1% DMSO or different concentrations of test compounds for 48 h. Subsequently, cells were fixed with 70% ethanol at 4°C overnight. After that, cells were washed with phosphate-buffered saline (PBS) and stained with 100 μl of RNase A at 37°C for 30 min and then 400 μl of propidium iodide (PI) at 4°C for 30 min. The cell cycle was measured by flow cytometry.

HSC-2 cells [9] = experiment: Mitochondrial membrane potential assay (JC-1); type: cell-based, human; settings: HSC-2, 0.1, 0.25 and 0.5 μM, 48 h, JC-1, dose-dependent
Method: HSC-2 cells were seeded on six-well plates and grown overnight at 37°C in a 5% CO2 incubator. Then, cells were incubated with 0.1% DMSO or different concentrations of compounds at 37°C for 48 h. Subsequently, cells were trypsinized, washed with PBS, and resuspended in incubation buffer containing JC-1 at 37°C for 20 min in a 5% CO2 incubator. The dyeing cells were rinsed, suspended in incubation PBS, and then analyzed d by flow cytometry.

p-AMPK = experiment: Western blot, p-AMPK; type: cell-based, human; settings: HSC-2, 0.1, 0.25 and 0.5 μM, 48 h, dose-dependent
Method: as §2

HSC-2 cells [10] = experiment: AO/EB double staining assay; type: cell-based, human; settings: HSC-2, 0.1, 0.25 and 0.5 μM, 48 h
Method: HSC-2 cells were seeded on six-well plates and grown overnight at 37°C in a 5% CO2 incubator. Then, cells were incubated with 0.1% DMSO or different concentrations of compounds at 37°C for 48 h. Subsequently, cells were trypsinized, collected, washed with PBS, and stained with 100 μl of AO/EB dye at room temperature for 15 min in the dark. The dyeing cells were rinsed, suspended in incubation PBS, and then observed under a fluorescence microscope.

p-mTOR = experiment: Western blot, p-mTOR; type: cell-based, human; settings: HSC-2, 0.1, 0.25 and 0.5 μM, 48 h
Method: as §2

p-AKT = experiment: Western blot, p-AKT; type: cell-based, human; settings: HSC-2, 0.1, 0.25 and 0.5 μM, 48 h
Method: as §2

HSC-2 cells [11] = experiment: Cell apoptosis analysis by flow cytometry (Annexin V/7-AAD); type: cell-based, human; settings: HSC-2, 0.1, 0.25 and 0.5 μM, 48 h, dose-dependent
Method: HSC-2 cells were seeded into six-well plates, grown overnight at 37°C in a 5% CO2 incubator, and then treated with 0.1% DMSO or different concentrations of test compounds for 48 h. Cells were washed twice with ice-cold PBS and then suspended with 500 μl of binding buffer. Subsequently, 5 μl of Annexin V-APC and 5 μl of 7-AAD were added, and the cells were incubated at room temperature for 15 min in the dark. The samples were analyzed by flow cytometry.

Structure (SMILES): COc1ccc(-c2coc3cc(OCC(=O)OC4c5cc6c(cc5C(c5cc(OC)c(OC)c(OC)c5)C5C(=O)OCC45)OCO6)ccc3c2=O)cc1 (stereo not drawn) [compound 6]
- IC50 [1]: 753 ± 173 nM

Structure (SMILES): Cc1cc(=O)oc2cc(O)ccc12 [compound 7, 4-methylumbelliferone]
- IC50 (μM) HSC-2 ([2]; CCK-8, 72 h, mean ± SD): no antiproliferative effect
- IC50 ([2]; Homo sapiens, HSC-2, CCK-8, 72 h, mean ± SD): > 100 µM
- IC50 (μM) A253 ([3]; CCK-8, 72 h, mean ± SD): no antiproliferative effect
- IC50 ([3]; Homo sapiens, A253, CCK-8, 72 h, mean ± SD): > 100 µM
- IC50 (μM) SCC-9 ([4]; CCK-8, 72 h, mean ± SD): no antiproliferative effect
- IC50 ([4]; Homo sapiens, SCC-9, CCK-8, 72 h, mean ± SD): > 100 µM

Structure (SMILES): N.N.[Cl][Pt][Cl] [Cisplatin, cisplatin]
- IC50 ([5]; normal cells, CCK-8, 72 h, mean ± SD): 5.36 ± 0.33 µM
- IC50 ([2]; CCK-8, 72 h, mean ± SD): 2.03 ± 0.308 µM
- IC50 ([3]; CCK-8, 72 h, mean ± SD): 1.62 ± 0.157 µM
- IC50 ([4]; CCK-8, 72 h, mean ± SD): 2.35 ± 0.384 µM

Structure (SMILES): COc1cc(C2c3cc4c(cc3C(OC(=O)CN3CCN(c5ccc(Cl)c(Cl)c5)CC3)C3COC(=O)C23)OCO4)cc(OC)c1OC (stereo not drawn) [compound 5]
- IC50 (human breast MCF-7 cells): 2780 ± 150 nM

Structure (SMILES): COc1cc([C@@H]2c3cc4c(cc3[C@H](OC(=O)COc3ccc5c(C)cc(=O)oc5c3)[C@H]3COC(=O)[C@H]23)OCO4)cc(OC)c1OC [12a]
- IC50 ([5]; Homo sapiens, HK-2, 72 h): 0.814 ± 0.173 µM
- IC50 ([2]; Homo sapiens, HSC-2, 72 h): 0.281 ± 0.024 µM
- IC50 ([3]; Homo sapiens, A253, 72 h): 0.349 ± 0.063 µM
- IC50 ([4]; Homo sapiens, SCC-9, 72 h): 0.279 ± 0.041 µM

Structure (SMILES): COc1cc([C@@H]2c3cc4c(cc3[C@H](OC(=O)COc3ccc5ccc(=O)oc5c3)[C@H]3COC(=O)[C@H]23)OCO4)cc(OC)c1OC [12b]
- Relative level of cleaved caspase3 (cleaved caspase3): upregulated
- IC50 ([5]; Homo sapiens, HK-2, 72 h): 0.626 ± 0.043 µM
- Aggregation of LC3 (LC3): increasing
- Level of cleavage of LC3 (LC3-II) (LC3): upregulated
- IC50 ([2]; Homo sapiens, HSC-2, 72 h): 0.226 ± 0.021 µM
- Relative level of CDK2 (CDK2): suppressed in a concentration-dependent manner
- Relative level of cyclin A2 (cyclin A2): suppressed in a concentration-dependent manner
- IC50 ([3]; Homo sapiens, A253, 72 h): 0.25 ± 0.019 µM
- Effect on microtubule network organization [6]: disruption of microtubule network organizations
- Expression of MMP-2 (MMP-2): reduced
- Cell migration (HSC-2 cells [7]): inhibited HSC-2 cell migration
- Relative level of cleaved PARP (cleaved PARP): upregulated
- Expression of E-cadherin (E-cadherin): obviously enhanced
- Aggregation of Beclin1 (Beclin1): increasing
- Effect on cell cycle (HSC-2 cells [8]; HSC-2, 0.1 μM): significant S accumulation
- Effect on cell cycle (HSC-2 cells [8]; HSC-2, 0.25 and 0.5 μM): cell cycle arrest at both S and G2 phases
- Mitochondrial membrane potential (MMP) (HSC-2 cells [9]): significantly decreased
- p-AMPK expression (p-AMPK): upregulated
- Morphological change, AO/EB staining (HSC-2 cells [10]): chromatin condensation and shrinkage
- IC50 ([4]; Homo sapiens, SCC-9, 72 h): 0.231 ± 0.05 µM
- mTOR phosphorylation (p-mTOR): inhibition
- Phosphorylation of AKT (p-AKT): downregulated
- Induction of apoptosis (HSC-2 cells [11]): obviously induced apoptosis
